Source: patent EP2012764B1, “PHARMACEUTICAL COMBINATION COMPRISING 3-(3-DIMETHYLAMINO-1-ETHYL-2-METHYL-PROPYL) -PHENOL AND PARACETAMOL” (Grünenthal GmbH, priority 2006, dated 2007)

Tested on: inflammatory pain
Test: Randall-Selitto test in rats (carrageenin-induced paw oedema, pressure at vocalisation, %MPE; isobolographic analysis)
Type: in vivo, rat
Procedure: The weight ratios of the components (a) and (b) that will lead to a supra-additive effect (synergistic effect) of the inventive pharmaceutical composition may be determined via the test of Randall and Selitto as described in Arch. Int. Pharmacodyn., 1957, 111: 409 to 419, which is a model for inflammatory pain. The respective part of the literature is hereby incorporated by reference and forms part of the present disclosure.
By means of injection of 0.1 ml of Carrageenin-suspension ventrally into a hind paw of a rat an oedema is induced, on which pain is generated 4 hours later by continuously increasing pressure with a stamp (2 mm tip diameter). The antinociceptive and antihyperalgesic activity of the tested substance is determined at different points in time after administration of the substance. The measured value to be determined and at the same time also the end point of the pain test is the pressure at which the vocalisation reaction of the rat occurs. The percentage maximum possible effect (%MPE) is calculated. The maximum pressure of the stamp is 250 g. The group size is n = 10.
The interactions studies presented herein were performed using equieffective doses of the two components, calculated from the ratio of the respective ED50 values of the components if administered alone.
The application route was intravenous (i.v.) for (1R,2R)-3-(3-Dimethylamino-1-ethyl-2-methyl-propyl)-phenol (A) and intraperitoneal (i.p.) for Paracetamol. […] According to their respective timepoint of peak effect, (1R,2R)-3-(3-Dimethylamino-1-ethyl-2-methyl-propyl)-phenol was applied 15 min and Paracetamol 120 min before timepoint of measurement of the interaction-experiments (i. e. Paracetamol was applied 105 min before (1R,2R)-3-(3-Dimethylamino-1-ethyl-2-methyl-propyl)-phenol, respectively). Thus, the time point of ED50 calculation of the combination corresponds to the timepoint of the peak effect of the respective compound.

For CC[C@@H](c1cccc(O)c1)[C@@H](C)CN(C)C [A, (1R,2R)-3-(3-Dimethylamino-1-ethyl-2-methyl-propyl)-phenol], the “timepoint of peak effect” value (A alone, i.v., timepoint of first measurement) was 15 min p. appl.

With CC(=O)Nc1ccc(O)cc1 [Paracetamol] the “timepoint of peak effect” value (Paracetamol alone, i.p.) was 120 min p. appl, the “ED50 (confidence interval)” value (Paracetamol alone, i.p., 120 min p. appl. (peak effect), rat, n = 10, 120 min) was 189,9 (181,3-198,4) mg/kg and the ED50 (Rattus norvegicus, ip, 2 h, Paracetamol alone, i.p., 120 min p. appl. (peak effect), rat, n = 10, read-out: ED50 (confidence interval)) was 190 mg/kg.
